According to US11272709B2, “Amidine substituted benzoyl derivatives useful as herbicides” (Syngenta Participations AG, priority 2018, dated 2022):

Assays:
Type in all cases: in vivo
Details in all cases: evaluated after 13 days
[1] = test system: Echinochloa crus-galli (ECHCG); test: Pre-emergence herbicidal glasshouse test, Echinochloa crus-galli (ECHCG)
Procedure: (§1) Seeds of a variety of test species are sown in standard soil in pots (Lolium perenne (LOLPE), Amaranthus retoflexus (AMARE), Abutilon theophrasti (ABUTH), Setaria faberi (SETFA), Echinochloa crus-galli (ECHCG), Ipomoea hederacea (IPOHE)). After cultivation for one day (pre-emergence) or after 8 days cultivation (post-emergence) under controlled conditions in a glasshouse (at 24/16° C., day/night; 14 hours light; 65% humidity), the plants are sprayed with an aqueous spray solution derived from the formulation of the technical active ingredient in acetone/water (50:50) solution containing 0.5% Tween 20 (polyoxyethelyene sorbitan monolaurate, CAS RN 9005-64-5). Compounds are applied at 500 g/h unless otherwise indicated. The test plants are then grown in a glasshouse under controlled conditions in a glasshouse (at 24/16° C., day/night; 14 hours light; 65% humidity) and watered twice daily. After 13 days for pre and post-emergence, the test is evaluated for the percentage damage caused to the plant. The biological activities are shown in the following table on a five point scale (5=80-100%; 4=60-79%; 3=40-59%; 2=20-39%; 1=0-19%).

[2] = test system: Amaranthus retoflexus (AMARE); test: Post-emergence herbicidal glasshouse test, Amaranthus retoflexus (AMARE)
Procedure: as §1

[3] = test system: Setaria faberi (SETFA); test: Post-emergence herbicidal glasshouse test, Setaria faberi (SETFA)
Procedure: as §1

[4] = test system: Ipomoea hederacea (IPOHE); test: Pre-emergence herbicidal glasshouse test, Ipomoea hederacea (IPOHE)
Procedure: as §1

[5] = test system: Amaranthus retoflexus (AMARE); test: Pre-emergence herbicidal glasshouse test, Amaranthus retoflexus (AMARE)
Procedure: as §1

[6] = test system: Echinochloa crus-galli (ECHCG); test: Post-emergence herbicidal glasshouse test, Echinochloa crus-galli (ECHCG)
Procedure: as §1

[7] = test system: Abutilon theophrasti (ABUTH); test: Post-emergence herbicidal glasshouse test, Abutilon theophrasti (ABUTH)
Procedure: as §1

[8] = test system: Ipomoea hederacea (IPOHE); test: Post-emergence herbicidal glasshouse test, Ipomoea hederacea (IPOHE)
Procedure: as §1

[9] = test system: Abutilon theophrasti (ABUTH); test: Pre-emergence herbicidal glasshouse test, Abutilon theophrasti (ABUTH)
Procedure: as §1

[10] = test system: Setaria faberi (SETFA); test: Pre-emergence herbicidal glasshouse test, Setaria faberi (SETFA)
Procedure: as §1

SMILES	PRE Application ECHCG, percentage damage (five point scale) ([1]; 500 g/h)	POST Application AMARE, percentage damage (five point scale) ([2]; 500 g/h)	POST Application SETFA, percentage damage (five point scale) ([3]; 500 g/h)	PRE Application IPOHE, percentage damage (five point scale) ([4]; 500 g/h)	PRE Application AMARE, percentage damage (five point scale) ([5]; 500 g/h)	POST Application ECHCG, percentage damage (five point scale) ([6]; 500 g/h)	POST Application ABUTH, percentage damage (five point scale) ([7]; 500 g/h)	POST Application IPOHE, percentage damage (five point scale) ([8]; 500 g/h)	PRE Application ABUTH, percentage damage (five point scale) ([9]; 500 g/h)	PRE Application SETFA, percentage damage (five point scale) ([10]; 500 g/h)	PRE Application ECHCG, percentage damage (five point scale) ([1]; applied at 250 g/ha)	POST Application AMARE, percentage damage (five point scale) ([2]; applied at 250 g/ha)	POST Application SETFA, percentage damage (five point scale) ([3]; applied at 250 g/ha)	PRE Application IPOHE, percentage damage (five point scale) ([4]; applied at 250 g/ha)	PRE Application AMARE, percentage damage (five point scale) ([5]; applied at 250 g/ha)	POST Application ECHCG, percentage damage (five point scale) ([6]; applied at 250 g/ha)	POST Application ABUTH, percentage damage (five point scale) ([7]; applied at 250 g/ha)	POST Application IPOHE, percentage damage (five point scale) ([8]; applied at 250 g/ha)	PRE Application ABUTH, percentage damage (five point scale) ([9]; applied at 250 g/ha)	PRE Application SETFA, percentage damage (five point scale) ([10]; applied at 250 g/ha)
CC(=NOCc1c(S(C)(=O)=O)ccc(C(=O)Nc2nnc(C)o2)c1Cl)N(C)C [Compound 2.129]	3 (3=40-59%)	5 (5=80-100%)	5 (5=80-100%)	2 (2=20-39%)	5 (5=80-100%)	5 (5=80-100%)	5 (5=80-100%)	5 (5=80-100%)	5 (5=80-100%)	3 (3=40-59%)										
Cc1nnc(NC(=O)c2ccc(C(F)(F)F)c(N=CN(C)c3ccccc3)c2Cl)o1 [Compound 2.131]	5 (5=80-100%)	5 (5=80-100%)	5 (5=80-100%)	2 (2=20-39%)	5 (5=80-100%)	5 (5=80-100%)	4 (4=60-79%)	3 (3=40-59%)	3 (3=40-59%)	5 (5=80-100%)										
Cc1nnc(NC(=O)c2ccc(C(F)(F)F)c(N=CN3CCCC3)c2Cl)o1 [Compound 2.132]	5 (5=80-100%)	5 (5=80-100%)	5 (5=80-100%)	5 (5=80-100%)	5 (5=80-100%)	5 (5=80-100%)	5 (5=80-100%)	5 (5=80-100%)	5 (5=80-100%)	5 (5=80-100%)										
Cc1nnc(NC(=O)c2ccc(C(F)(F)F)c(N=CN(C)C(C)C)c2Cl)o1 [Compound 2.140]	5 (5=80-100%)	5 (5=80-100%)	5 (5=80-100%)	4 (4=60-79%)	5 (5=80-100%)	5 (5=80-100%)	5 (5=80-100%)	4 (4=60-79%)	5 (5=80-100%)	5 (5=80-100%)										
Cc1nnc(NC(=O)c2ccc(S(C)(=O)=O)c(N=CN(C)CC(F)(F)F)c2Cl)o1 [Compound 2.142]											5 (5=80-100%)	5 (5=80-100%)	5 (5=80-100%)	1 (1=0-19%)	5 (5=80-100%)	5 (5=80-100%)	5 (5=80-100%)	5 (5=80-100%)	3 (3=40-59%)	5 (5=80-100%)
Cc1nnc(NC(=O)c2ccc(S(C)(=O)=O)c(N=CN(C)CC(F)(F)F)c2C)o1 [Compound 2.143]	5 (5=80-100%)	5 (5=80-100%)	5 (5=80-100%)	5 (5=80-100%)	5 (5=80-100%)	5 (5=80-100%)	5 (5=80-100%)	5 (5=80-100%)	5 (5=80-100%)	5 (5=80-100%)										
Cc1nnc(NC(=O)c2ccc(S(C)(=O)=O)c(N=CN(C)C(C)C)c2C)o1 [Compound 2.144]	5 (5=80-100%)	5 (5=80-100%)	5 (5=80-100%)	3 (3=40-59%)	5 (5=80-100%)	5 (5=80-100%)	5 (5=80-100%)	4 (4=60-79%)	5 (5=80-100%)	5 (5=80-100%)										
CC(=Nc1c(C(F)(F)F)ccc(C(=O)Nc2nnc(C)o2)c1Cl)N(C)C [Compound 2.148]	5 (5=80-100%)	5 (5=80-100%)	5 (5=80-100%)	5 (5=80-100%)	5 (5=80-100%)	5 (5=80-100%)	5 (5=80-100%)	3 (3=40-59%)	5 (5=80-100%)	5 (5=80-100%)										
Cc1c(C(=O)C2=C(O)CCCC2=O)ccc(C(F)(F)F)c1N=CN(C)C [Compound 3.017]	5 (5=80-100%)	3 (3=40-59%)	5 (5=80-100%)	5 (5=80-100%)	5 (5=80-100%)	5 (5=80-100%)	5 (5=80-100%)	5 (5=80-100%)	5 (5=80-100%)	4 (4=60-79%)										
Cc1c(C(=O)C2=C(O)CCCC2=O)ccc(S(C)(=O)=O)c1N=CN(C)C [Compound 3.025]	5 (5=80-100%)	5 (5=80-100%)	5 (5=80-100%)	4 (4=60-79%)	5 (5=80-100%)	5 (5=80-100%)	5 (5=80-100%)	5 (5=80-100%)	5 (5=80-100%)	4 (4=60-79%)										
